EC50 data for 38 compounds are collected here from patent publication US8143288B2, “Inhibitors of HCV replication” (priority 2005, dated 2012).

Molecules are shown by their SMILES.

The first assay relates to HCV 1b-377-neo replicon cells. Description: HCV replicon FRET assay. The class given is cell-based. The conditions noted are these: Hepatitis C virus, read-out: Activity (EC50). An excerpt: The HCV replicon cell line was isolated from colonies as described by Lohman, et. al. (Science 1999, 285, 110-113, expressly incorporated by reference in its entirety) and used for all experiments. The HCV replicon has the nucleic acid sequence set forth in EMBL Accession No.: AJ242652, the coding sequence of which is from nt 1801 to 7758.
The coding sequence of the published HCV replicon was synthesized by Operon Technologies, Inc. (Alameda, Calif.), and the fall-length replicon was then assembled in plasmid pGem9zf(+) (Promega, Madison, Wis.) using standard molecular biology techniques. The replicon consists of (i) the HCV 5′ UTR fused to the first 12 amino acids of the capsid protein, (ii) the neomycin phosphotransferase gene (neo), (iii) the IRES from encephalomyocarditis virus (EMCV), and (iv) HCV NS3 to NS5B genes and the HCV 3′ UTR. Plasmid DNAs were linearized with ScaI and RNA transcripts were synthesized in vitro using the T7 MegaScript transcription kit (Ambion, Austin, Tex.) according to manufacturer's directions.
To generate cell lines, 4×10^6 Huh-7 cells (kindly provided by R. Bartenschlager and available from Health Science Research Resources Bank, Japan Health Sciences Foundation) were electroporated (GenePulser System, Bio-Rad) with 10 micrograms(“μg”) of RNA transcript and plated into 100-mm dishes. After 24 hours, selective media containing 1.0 milligrams/milliliter (“mg/mL”) G418 was added and media was changed every 3 to 5 days. […] These cell lines were maintained at 37° C., 5% CO2, 100% relative humidity in DMEM (Cat#11965-084) Gibco-BRL, Rockville, Md., with 10% heat inactivated calf serum (Sigma), 10 mL of 100× penicillin/streptomycin (Cat#15140-122) Gibco-BRL, Rockville, Md., Geneticin (Cat#10131-027) Gibco-BRL, Rockville, Md. at 1 mg/mL. One of the cell lines (deposited as ATCC Accession No. PTA-4583 in the American Type Culture Collection) which had approximately 3,000 copies of HCV replicon RNA/cell was used for development of the assay (HCV 1b-377-neo replicon cells).
To perform the HCV FRET screening assay, 96-well cell culture plates were used. The FRET peptide (Anaspec, Inc., San Jose, Calif.) (Taliani et al., Anal. Biochem. 1996, 240, 60-67, hereby incorporated by reference in its entirety) contains a fluorescence donor, EDANS, near one end of the peptide and an acceptor, DABCYL, near the other end. The fluorescence of the peptide is quenched by […] resonance energy transfer (RET) between the donor and the acceptor, but as the NS3 protease cleaves the peptide the products are released from RET quenching and the fluorescence of the donor becomes apparent.
The assay reagent was made as follows: 5X luciferase cell culture lysis (Cat#E153A, Promega, Madison, Wis.) diluted to 1X with dH2O, NaCl added to […] final, the FRET peptide diluted to 20 micromolar (“μM”) final from a 2 mM stock. HCV 1b-377-neo replicon cells were trypsinized, placed into each well of a 96-well plate and allowed to attach overnight. The next day, the test compounds were added to columns 1 through 10; column 11 was media plus DMSO only, and column 12 contained a titration of interferon or an HCV specific inhibitor as a control (1000 units for A12, B12, 100 units for C12, D12, 10 units for E12, F12 and 1 unit for G12, H12). […] In addition, naïve Huh-7 cells could also be used to replace wells A12 and B12 as a background control.
At subsequent various times (typically 72 hours), 10% final volume Alamar blue (Cat#00-100, Trek Diagnostics, Cleveland, Ohio) was added to each well. The plates were returned to the incubator for 5 hours and then read in the Cytoflour (PE Biosystems) to determine Alamar blue conversion in each well as a measure of cellular toxicity.
Turning to `CC(C)(C)OC(=O)Nc1ccccc1C(=O)N1CCC[C@H]1C(=O)Nc1ccc(/C=C/c2ccc(NC(=O)[C@@H]3CCCN3C(=O)c3ccccc3NC(=O)OC(C)(C)C)cc2)cc1` [Example 150], the EC50 – broadly, the concentration at which the effect is half-maximal – was in the range of 1 to 10 µM.

The assay is the same for the next values; noted with them: Hepatitis C virus; HCV replicon; read-out: Activity (EC50).
Turning to `O=C(CC1CC1)Nc1ccc(/C=C/c2ccc(NC(=O)[C@@H]3CCCN3C(=O)[C@H]3CCCO3)cc2)cc1` [Example 261], the EC50 lay within 1 to 10 µM.

Turning to `CC(C)(C)OC(=O)N1CCC[C@H]1C(=O)Nc1ccc(/C=C/c2ccc(NC(=O)[C@@H]3CCCN3)cc2)cc1` [Example 22], the EC50 lay in the range of 1 to 10 µM.

Consider `COc1ccc2[nH]cc(CC(=O)N3CCC[C@H]3C(=O)Nc3ccc(/C=C/c4ccc(NC(=O)[C@@H]5CCCN5C(=O)Cc5c[nH]c6ccc(OC)cc56)cc4)cc3)c2c1` [Example 35], for which the EC50 was 0.0001 to 0.09 µM.

Consider `Cc1nc2ccccn2c1C(=O)N1CCC[C@H]1C(=O)Nc1ccc(/C=C/c2ccc(NC(=O)[C@@H]3CCCN3C(=O)c3c(C)nc4ccccn34)cc2)cc1` [Example 187], for which the EC50 was in the range of 0.0001 to 0.09 µM.

On to `COCC(=O)N1CCC[C@H]1C(=O)Nc1ccc(/C=C/c2ccc(NC(=O)[C@@H]3CCCN3C(=O)c3cccnc3)cc2)cc1` [Example 87], for which the EC50 was 0.0001 to 0.09 µM.

As to `O=C(Nc1ccc(/C=C/c2ccc(NC(=O)[C@@H]3CCCN3C(=O)[C@@H]3CCCN3Cc3ccccc3)cc2)cc1)[C@@H]1CCCN1C(=O)[C@@H]1CCCN1Cc1ccccc1` [Example 164], the EC50 lay in the range of 1 to 10 µM.

Regarding `O=C(Nc1ccc(/C=C/c2ccc(NC(=O)[C@@H]3C=CCN3C(=O)C3CCC3)cc2)cc1)[C@@H]1C=CCN1C(=O)C1CCC1` [Example 74], the EC50 was 0.1 to 1 µM.

In the case of `CNc1ccccc1C(=O)N1CCC[C@H]1C(=O)Nc1ccc(/C=C/c2ccc(NC(=O)[C@@H]3CCCN3C(=O)c3ccccc3NC)cc2)cc1` [Example 140], the EC50 is 0.1 to 1 µM.

Consider `O=C(Nc1ccc(/C=C/c2ccc(NC(=O)[C@@H]3CCCN3C(=O)Cc3ccccc3)cc2)cc1)c1ccccc1NCc1ccccc1` [Example 267], for which the EC50 lay within 0.1 to 1 µM.

In the case of `CC(C)(C)O[C@@H]1C[C@@H](C(=O)Nc2ccc(/C=C/c3ccc(NC(=O)[C@@H]4C[C@@H](OC(C)(C)C)CN4C(=O)OCc4ccccc4)cc3)cc2)N(C(=O)OCc2ccccc2)C1` [Example 294], the EC50 lay within 0.1 to 1 µM.

Regarding `O=C(Nc1ccc(/C=C/c2ccc(NC(=O)[C@@H]3CCCN3C(=O)c3ccccc3NCc3ccccc3)cc2)cc1)[C@@H]1CCCN1C(=O)CC1CC1` [Example 152], the EC50 is 0.1 to 1 µM.

As to `CCC(=O)N1CCC[C@H]1C(=O)Nc1ccc(/C=C/c2ccc(NC(=O)[C@@H]3CCCN3C(=O)CC)cc2)cc1` [Example 46], the EC50 fell in the range of 0.1 to 1 µM.

`[N-]=[N+]=Nc1cccc(CC(=O)N2CCC[C@H]2C(=O)Nc2ccc(/C=C/c3ccc(NC(=O)[C@@H]4CCCN4C(=O)Cc4ccccc4)cc3)cc2)c1` [Example 126]: the EC50 was in the range of 0.0001 to 0.09 µM.

In the case of `O=C(Nc1ccc(/C=C/c2ccc(NC(=O)C3CC(=O)N(CCc4cccs4)C3)cc2)cc1)C1CC(=O)N(CCc2cccs2)C1` (centres unmarked) [Example 14], the EC50 is 1 to 10 µM.

On to `O=C(Cc1ccccc1)C1C[C@H](O)C[C@H]1C(=O)Nc1ccc(/C=C/c2ccc(NC(=O)[C@@H]3C[C@@H](O)CN3C(=O)Cc3ccccc3)cc2)cc1` (some centres unmarked) [Example 291], for which the EC50 fell in the range of 0.0001 to 0.09 µM.

For the compound `O=C(Nc1ccc(/C=C/c2ccc(NC(=O)[C@@H]3C=CCN3C(=O)Cc3cccnc3)cc2)cc1)[C@@H]1C=CCN1C(=O)Cc1cccnc1` [Example 218], the EC50 fell in the range of 0.0001 to 0.09 µM.

Regarding `O=C(Nc1ccc(/C=C/c2ccc(NC(=O)[C@@H]3Cc4ccccc4CN3C(=O)OCc3ccccc3)cc2)cc1)[C@@H]1Cc2ccccc2CN1C(=O)OCc1ccccc1` [Example 10], the EC50 lay within 1 to 10 µM.

Consider `O=C(Nc1ccc(/C=C/c2ccc(NC(=O)[C@@H]3CCCN3C(=O)Cc3ccccc3)cc2)cc1)c1ccccc1OCc1ccccc1` [Example 268], for which the EC50 lay within 1 to 10 µM.

As to `O=C(Nc1ccc(/C=C/c2ccc(NC(=O)[C@@H]3CCCN3C(=O)c3cccnc3)cc2)cc1)[C@@H]1CCCN1C(=O)c1cccnc1` [Example 59], the EC50 lay within 0.1 to 1 µM.

Regarding `O=C(Nc1ccc(/C=C/c2ccc(NC(=O)[C@@H]3CCCN3C(=O)c3cccc4cc[nH]c34)cc2)cc1)[C@@H]1CCCN1C(=O)c1cccc2cc[nH]c12` [Example 149], the EC50 lay within 0.1 to 1 µM.

Take `O=C(Nc1ccc(/C=C/c2ccc(NC(=O)[C@@H]3CCCN3C(=O)c3ncccc3OCc3ccccc3)cc2)cc1)[C@@H]1CCCN1C(=O)c1ncccc1OCc1ccccc1` [Example 183]: the EC50 lay in the range of 1 to 10 µM.

As to `COC(=O)N1CCC[C@H]1C(=O)Nc1ccc(/C=C/c2ccc(NC(=O)[C@@H]3CCCN3C(=O)OC)cc2)cc1` [Example 52], the EC50 was 0.1 to 1 µM.

As for `O=C(Nc1ccc(/C=C/c2ccc(NC(=O)[C@@H]3CCCN3C(=O)c3ccccc3Oc3ccccc3)cc2)cc1)[C@@H]1CCCN1C(=O)c1ccccc1Oc1ccccc1` [Example 147], the EC50 fell in the range of 0.1 to 1 µM.

Take `O=C(NCc1ccccc1)Nc1ccc(/C=C/c2ccc(NC(=O)[C@@H]3CCCN3C(=O)Cc3ccccc3)cc2)cc1` [Example 250C]: the EC50 is 1 to 10 µM.

`Cc1nc(C)c(C(=O)N2CCC[C@H]2C(=O)Nc2ccc(/C=C/c3ccc(NC(=O)[C@@H]4CCCN4C(=O)c4sc(C)nc4C)cc3)cc2)s1` [Example 203]: the EC50 lay in the range of 0.1 to 1 µM.

With `O=C(Nc1ccc(/C=C/c2ccc(NC(=O)[C@@H]3CCCN3C(=O)c3ncoc3-c3ccccc3)cc2)cc1)[C@@H]1CCCN1C(=O)c1ncoc1-c1ccccc1` [Example 184], the EC50 lay in the range of 0.1 to 1 µM.

Take `O=C(Nc1ccc(/C=C/c2ccc(NC(=O)[C@@H]3CCCN3C(=O)Cc3ccccc3)cc2)cc1)[C@H]1CCCN1C(=O)Cc1ccccc1` [Example 255]: the EC50 lay in the range of 0.1 to 1 µM.

Turning to `CC(=O)c1ccccc1C(=O)N1CCC[C@H]1C(=O)Nc1ccc(/C=C/c2ccc(NC(=O)[C@@H]3CCCN3C(=O)c3ccccc3C(C)=O)cc2)cc1` [Example 135], the EC50 is 1 to 10 µM.

Regarding `O=C(Nc1ccc(/C=C/c2ccc(NC(=O)[C@@H]3CCCN3C(=O)c3ccccc3CCc3ccccc3)cc2)cc1)[C@@H]1CCCN1C(=O)c1ccccc1CCc1ccccc1` [Example 169], the EC50 was 0.1 to 1 µM.

In the case of `CC(C)(C)CC(=O)N1CCC[C@H]1C(=O)Nc1ccc(/C=C/c2ccc(NC(=O)[C@@H]3CCCN3C(=O)CC(C)(C)C)cc2)cc1` [Example 48], the EC50 lay within 0.1 to 1 µM.

For the compound `O=C(Nc1ccc(/C=C/c2ccc(NC(=O)[C@@H]3CCCN3C(=O)C3CC(=O)N(Cc4cccs4)C3)cc2)cc1)[C@@H]1CCCN1C(=O)C1CC(=O)N(Cc2cccs2)C1` (some centres unmarked) [Example 154], the EC50 is 1 to 10 µM.

Consider `O=C(Nc1ccc(/C=C/c2ccc(NC(=O)[C@@H]3CCCN3C(=O)Cc3ccccc3)cc2)cc1)c1ccccc1` [Example 264], for which the EC50 was in the range of 0.0001 to 0.09 µM.

Take `Cc1ccsc1C(=O)N1CCC[C@H]1C(=O)Nc1ccc(/C=C/c2ccc(NC(=O)[C@@H]3CCCN3C(=O)c3sccc3C)cc2)cc1` [Example 198]: the EC50 is 0.1 to 1 µM.

With `CCCOc1cccnc1C(=O)N1CCC[C@H]1C(=O)Nc1ccc(/C=C/c2ccc(NC(=O)[C@@H]3CCCN3C(=O)c3ncccc3OCCC)cc2)cc1` [Example 159], the EC50 lay in the range of 1 to 10 µM.

Regarding `CC(C)(C)C(=O)N1CCC[C@H]1C(=O)Nc1ccc(/C=C/c2ccc(NC(=O)[C@@H]3CCCN3C(=O)C(C)(C)C)cc2)cc1` [Example 53], the EC50 was 0.0001 to 0.09 µM.

Turning to `O=C(Nc1ccc(/C=C/c2ccc(NC(=O)[C@@H]3CCCN3C(=O)c3ncccc3-c3cccc(Cl)c3)cc2)cc1)[C@@H]1CCCN1C(=O)c1ncccc1-c1cccc(Cl)c1` [Example 232], the EC50 lay within 1 to 10 µM.

With `O=C(Nc1ccc(/C=C/c2ccc(NC(=O)[C@@H]3CCCN3C(=O)c3ccccc3F)cc2)cc1)[C@@H]1CCCN1C(=O)c1ccccc1F` [Example 107], the 50% effective concentration (EC50) fell in the range of 0.1 to 1 µM.
